# Assay results: patent US10842800B2, “Concomitant administration of glucocorticoid receptor modulators and CYP3A inhibitors” (Corcept Therapeutics, Inc., priority 2017, dated 2020)
# Entries after “also recorded” stand apart in the source; their conditions may differ. Read-outs that look alike come from different tables or passages of the source.
# Assays:
# Assay type in all cases: in vivo, human
# [1] = Safety assessment: adverse events, laboratory tests, ECG (Example 1); settings: for TEAEs considered by the investigator to be related to the drug: Example 1
# Method: (§1) Subjects in both cohorts returned to the study center on Day 15 for safety monitoring, and completion of the Termination Visit procedures, followed by discharge from the study. Safety was assessed by spontaneously reported adverse events, physical examinations, and routine clinical laboratory tests. To the extent possible, any adverse events deemed study drug-related and that were ongoing at the time of discharge from the study were followed-up to resolution or until a determination is made that the unresolved event was stable.
# [2] = Ketoconazole PK after a 400 mg single dose on Day 8 of mifepristone 300 or 600 mg OD (Example 2)
# Text: (§2) Subjects were discharged on Day 11.
# (§3) Subjects were discharged on Day 11. Subjects in both cohorts returned to study center on Day 13 for safety monitoring, collection of the 120-hour PK draw, and completion of the Termination Visit procedures, followed by discharge from the study. To the extent possible, any adverse events deemed study drug-related and that were ongoing at the time of discharge from the study were followed-up to resolution or until a determination was made that the unresolved event was stable.
# (§4) DURATION OF TREATMENT: Up to a total of 28 days, including up to 2 weeks screening, dosing on Days 1-8, safety observation, and PK sample collection through Day 13.
# (§5) Descriptive statistics count, mean, median, standard deviation, minimum, maximum, and % coefficient of variation) were provided. Ketoconazole concentrations were listed and summarized. GM means of Cmax and total AUC were compared for the single dose in this study to the combined data of reported 400 mg single doses of ketoconazole of healthy subjects from the literature.
# [3] = Effect of co-administration with mifepristone on ketoconazole PK (Example 3); settings: Test: Day 17, 600 mg mifepristone OD + 200 mg ketoconazole BID; Reference: Day -1, 200 mg ketoconazole single dose
# Method: (§6) A single dose of ketoconazole was administered on Day −1.
# (§7) The study was a two period study design.
# [4] = Effect of oral ketoconazole 400 mg OD or 200 mg BID on plasma pharmacokinetics of a 300 mg single dose of mifepristone, fasted (Example 1); settings: for AUC: male, human, plasma, oral, read-out: AUCtot (mean)
# Text: This study was an open-label study in healthy male subjects.
# (§8) Healthy male volunteers between the ages of 18 to 45 years of age with a body mass index (BMI) ranging between 19 and 32 kg/m2 and a weight of at least 60 kg (132 lbs) were enrolled. Subjects had no clinically significant abnormal findings on the physical examination, ECG, blood pressure, heart rate, medical history, or clinical laboratory results during screening. The QTc interval at screening was less than 450 msec.
# In cohort 1, six subjects received ketoconazole 400 mg OD for 14 days.
# Subjects remained in the clinic on Days 2 and 3 to receive 400 mg OD oral ketoconazole fasted, and for safety evaluation and collection of blood pharmacokinetic (PK) samples. Subjects were discharged from the clinic on Day 4 following administration of 400 mg OD oral ketoconazole fasted, and returned to the clinic the mornings of Days 5 through 13 to receive 400 mg OD oral ketoconazole fasted.
# In cohort 2, six subjects received ketoconazole 200 mg BID for 14 days. […] All 12 subjects completed the study. Cohort 2 subjects participated in a Screening visit to assess eligibility and a check-in Day (Day −1) during which eligibility was re-confirmed. […] The evening of Day 1, subjects received 200 mg oral ketoconazole. Subjects remained in the clinic on Days 2, 3 and 4 to receive 200 mg BID oral ketoconazole, and for safety evaluation and collection of blood pharmacokinetic (PK) samples. Subjects were discharged from the clinic on Day 4 following evening administration of 200 mg oral ketoconazole, and returned to the clinic the morning and evening of Days 5 through 13 to receive 200 mg BID oral ketoconazole. Morning doses of ketoconazole on Days 0-13 were administered in the fasted state.
# as §1
# Descriptive statistics (count, mean, median, standard deviation, minimum, maximum, and % coefficient of variation) were provided. […] Comparisons with previous study data were made.
# [5] = Effect of a 400 mg single dose of ketoconazole on PK of an 8-day regimen of 300 mg or 600 mg OD mifepristone, moderate fat breakfast (Example 2)
# Method: This was an open-label study in healthy male subjects. […] The 400 mg single dose of ketoconazole was given to all subjects on day 8.
# METHODOLOGY: Twelve subjects were enrolled, six in Cohort 1 and 6 in Cohort 2.
# as §2, §3
# as §8, with “DIAGNOSIS AND MAIN […] FOR INCLUSION: Healthy” for “Healthy”
# as §4, §5
# [6] = Safety assessment: adverse events, physical examinations, laboratory tests (Example 2)
# Method: Safety was assessed by spontaneously reported adverse events, physical examinations, and routine clinical laboratory tests. Adverse event data were tabulated. Physical findings and laboratory test results were listed by subject.
# [7] = Effect of ketoconazole 200 mg BID on PK of mifepristone 600 mg OD and metabolites, with food (Example 3); settings: for concentrations on Day 17 compared with Day 12: Day 17: mifepristone 600 mg daily + ketoconazole 200 mg twice daily, Day 12: mifepristone alone; for Ratio % Test/Reference, AUC0-24 (geometric mean ratio) / Ratio % Test/Reference, Cmax (geometric mean ratio): Test: Day 17, 600 mg mifepristone OD + 200 mg ketoconazole BID, Reference: Day 12, 600 mg mifepristone OD; for effect of co-administration with ketoconazole on exposure: mifepristone 600 mg OD + ketoconazole 200 mg BID
# Method: as §6, §7
# [8] = Cross-study comparison of exposure to mifepristone and metabolites with historic 1200 mg OD mifepristone study (Example 3); settings: for Ratio % Test/Ref, AUC0-24 (geometric mean ratio) / Ratio % Test/Ref, Cmax (geometric mean ratio): Test: present study Day 17, 600 mg mifepristone OD + 200 mg ketoconazole BID, Reference: historic study Day 7, 1200 mg mifepristone OD alone, after 34% fat meal
# [9] = Safety: adverse events, laboratory tests, vital signs, ECG (Example 3); settings: mifepristone 600 mg OD Days 1-17, ketoconazole 200 mg BID Days 13-17
# [10] = Liver function of a patient with excess cortisol on ketoconazole plus reduced mifepristone dose (Examples 4-7); settings: concomitant ketoconazole
# [11] = single 400 mg ketoconazole dose on Day 8
# [12] = MIFE 300 mg single dose fasted, C1: Keto 400 mg OD
# [13] = Cohort 2 (600 mg OD), between Day 7 and Day 8
# [14] = 900 mg mifepristone daily with inhibition of CYP3A (extrapolated from 600 mg data)
compound,measurement,setting,value
"CC(=O)N1CCN(c2ccc(OCC3COC(Cn4ccnc4)(c4ccc(Cl)cc4Cl)O3)cc2)CC1 (stereo not drawn) [Ketoconazole, 1-acetyl-4-[4-[[2-(2,4-dichlorophenyl)-2-[(1H-imidazol-1-yl)-methyl]-1,3-dioxolan-4-yl]methoxy]phenyl]piperazine]",TEAEs considered by the investigator to be related to the drug,[1],One TEAE of insomnia
same,ketoconazole half-life on either mifepristone regimen,"[2]; single 400 mg dose on Day 8, mifepristone 300 vs 600 mg OD",not appreciably different
same,ketoconazole AUCinf higher on 600 mg OD relative to 300 mg OD mifepristone regimen,[2]; [11],36%
same,ketoconazole Cmax higher on 600 mg OD relative to 300 mg OD mifepristone regimen,[2]; [11],37%
same,"Ratio % Test/Reference, AUC (geometric mean ratio)",[3],365.36%
same,"Ratio % Test/Reference, Cmax (geometric mean ratio)",[3],252.71%
"CC#C[C@]1(O)CC[C@H]2[C@@H]3CCC4=CC(=O)CCC4=C3[C@@H](c3ccc(N(C)C)cc3)C[C@@]21C [Mifepristone, 11β-(4-dimethylaminophenyl)-17β-hydroxy-17α-(1-propynyl)-estra-4,9-dien-3-one]",geometric mean ratio (GMR) for AUCinf,[4]; Cohort 2 vs Cohort 1,1.05
same,geometric mean ratio (GMR) for Cmax,[4]; Cohort 2 vs Cohort 1,1.15
same,Mean Ratio Cmax (C2/C1),"[4]; Keto 200 mg BID vs 400 mg OD, MIFE 300 mg single dose",1.15 ng/mL
same,T1/2 (mean),[4]; [12],37.1 h
same,AUC,[4]; [12],117 µg·h/mL
same,AUC,"[4]; MIFE 300 mg single dose fasted, C2: Keto 200 mg BID",131 µg·h/mL
same,subjects with at least 1 treatment-emergent adverse event (TEAE),"[1]; 12 subjects, mifepristone 300 mg single dose with ketoconazole for 14 days",25%
same,TEAEs considered by the investigator to be related to the drug,[1],No TEAE
same,serious adverse effect (SAE),[1]; mifepristone 300 mg single dose with ketoconazole for 14 days,No subject experienced a serious adverse effect (SAE); also recorded: No subject experienced an SAE
same,increase in AUC0-24,[5]; [13],28%
same,increase in Cmax,[5]; [13],39%
same,AUC0-24 at 600 mg OD greater than at 300 mg OD,[5]; Day 7 without ketoconazole,48%
same,Cmax at 600 mg OD greater than at 300 mg OD,[5]; Day 7 without ketoconazole,42%
same,AUC0-24 at 600 mg OD greater than at 300 mg OD,[5]; Day 8 with 400 mg ketoconazole,52%
same,Cmax at 600 mg OD greater than at 300 mg OD,[5]; Day 8 with 400 mg ketoconazole,65%
same,half-life at 600 mg OD greater than at 300 mg OD,[5]; Day 8 with 400 mg ketoconazole,13%
same,"AUCt (AUC0-24 hours, mean)","[5]; MIFE 300 mg/d C1 Day 7, no ketoconazole",37.734 µg·h/mL
same,Cmax (mean),"[5]; MIFE 300 mg/d C1 Day 8, 400 mg Keto single dose",3240 ng/mL
same,TEAEs considered possibly or probably related to mifepristone administration,[6]; four subjects in Cohort 2 (600 mg),"dizziness, nausea, vomiting, dry mouth, and rash"
same,SAE,"[6]; mifepristone 300 or 600 mg OD 8 days, ketoconazole 400 mg Day 8",No subject experienced an SAE
same,subjects with at least 1 TEAE,"[6]; twelve subjects, mifepristone 300 or 600 mg OD 8 days, ketoconazole 400 mg Day 8",50%
same,corresponding increase in mifepristone AUC,[7]; [14],38.01%
same,corresponding increase in mifepristone Cmax,[7]; [14],27.59%
same,concentrations on Day 17 compared with Day 12,[7],higher
same,"Ratio % Test/Reference, AUC0-24 (geometric mean ratio)",[7],138.01%
same,"Ratio % Test/Reference, Cmax (geometric mean ratio)",[7],127.59%
same,effect of co-administration with ketoconazole on exposure,[7],increased
same,exposures as share of those following the highest labeled dose of mifepristone (1200 mg daily),[8]; 600 mg mifepristone OD + 200 mg ketoconazole BID,approximately 85%
same,"Ratio % Test/Ref, AUC0-24 (geometric mean ratio)",[8],87.27%
same,"Ratio % Test/Ref, Cmax (geometric mean ratio)",[8],84.64%
same,mifepristone exposure less than that of 1200 mg mifepristone in the absence of ketoconazole,[8]; mifepristone 600 mg co-administered with ketoconazole,13-15%
same,deaths or SAEs,[9],No deaths or SAEs
same,severe TEAEs,[9],No severe TEAEs
same,liver function of the patient,[10]; mifepristone reduced from 600 mg to 300 mg daily,not significantly compromised
same,liver function of the patient,[10]; mifepristone reduced from 900 mg to 600 mg daily,not significantly compromised
same,liver function of the patient,[10]; mifepristone reduced from 1200 mg to 900 mg daily,not significantly compromised
same,liver function of the patient,[10]; mifepristone reduced from 1500 mg to 1200 mg daily,not significantly compromised
"CC#C[C@]1(O)CC[C@H]2[C@@H]3CCC4=CC(=O)CCC4=C3[C@@H](c3ccc(NC)cc3)C[C@@]21C [RU 42633, (8S,11R,13S,14S,17S)-17-hydroxy-13-methyl-11-[4-(methylamino)phenyl]-17-prop-1-ynyl-1,2,6,7,8,11,12,14,15,16-decahydrocyclopenta[a]phenanthren-3-one]",concentrations on Day 17 compared with Day 12,[7],similar
same,"Ratio % Test/Reference, AUC0-24 (geometric mean ratio)",[7],102.33%
same,"Ratio % Test/Reference, Cmax (geometric mean ratio)",[7],105.73%
same,effect of co-administration with ketoconazole on exposure,[7],not affected by ketoconazole; also recorded: little change in exposure
same,"Ratio % Test/Ref, AUC0-24 (geometric mean ratio)",[8],91.34%
same,"Ratio % Test/Ref, Cmax (geometric mean ratio)",[8],96.31%
"CN(C)c1ccc([C@H]2C[C@@]3(C)[C@@H](CC[C@@]3(O)C#CCO)[C@@H]3CCC4=CC(=O)CCC4=C32)cc1 [RU 42698, (8S,11R,13S,14S,17S)-11-[4-(dimethylamino)phenyl]-17-hydroxy-17-(3-hydroxyprop-1-ynyl)-13-methyl-1,2,6,7,8,11,12,14,15,16-decahydrocyclopenta[a]phenanthren-3-one]",mean metabolite exposure compared with mifepristone,[5]; mifepristone 300 or 600 mg OD,lower
same,concentrations on Day 17 compared with Day 12,[7],higher
same,"Ratio % Test/Reference, AUC0-24 (geometric mean ratio)",[7],166.86%
same,"Ratio % Test/Reference, Cmax (geometric mean ratio)",[7],169.13%
same,mean increase in exposure,"[7]; co-administration with ketoconazole 200 mg BID, mifepristone 600 mg OD",approximately 70%
same,effect of co-administration with ketoconazole on exposure,[7],increased by ketoconazole
same,"Ratio % Test/Ref, AUC0-24 (geometric mean ratio)",[8],118.18%
same,"Ratio % Test/Ref, Cmax (geometric mean ratio)",[8],116.55%
"CC#C[C@]1(O)CC[C@H]2[C@@H]3CCC4=CC(=O)CCC4=C3[C@@H](c3ccc(N)cc3)C[C@@]21C [RU 42848, (8S,11R,13S,14S,17S)-11-(4-aminophenyl)-17-hydroxy-13-methyl-17-prop-1-ynyl-1,2,6,7,8,11,12,14,15,16-decahydrocyclopenta[a]phenanthren-3-one]",concentrations on Day 17 compared with Day 12,[7],similar
same,"Ratio % Test/Reference, AUC0-24 (geometric mean ratio)",[7],94.88%
same,"Ratio % Test/Reference, Cmax (geometric mean ratio)",[7],95.48%
same,effect of co-administration with ketoconazole on exposure,[7],not affected by ketoconazole; also recorded: little change in exposure
same,"Ratio % Test/Ref, AUC0-24 (geometric mean ratio)",[8],81.43%
same,"Ratio % Test/Ref, Cmax (geometric mean ratio)",[8],82.45%
